Data reported in US9469645B2, “Compounds and compositions for the treatment of parasitic diseases” (Novartis AG, priority 2009, dated 2016).
Read-outs that look alike come from different tables or passages of the source.

Tests used:
3D7 P. falciparum strain = assay: parasite proliferation assay in infected red blood cells (SYBR Green I); type: cell-based, Plasmodium falciparum; conditions: 3D7 strain, read-out: EC50 3D7 strain
How it was run: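 P. falciparum 3D7 grown in O+ human erythrocytes to 3–8% parasitemia and exposed to compounds. Proliferation read as the increase in parasite DNA. Detection used SYBR Green I in saponin/triton-X/EDTA lysis buffer, with overnight lysis at room temperature.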

W2 strain = assay: parasite proliferation assay in infected red blood cells (SYBR Green I), W2 strain; type: cell-based
Description: Compounds of the invention can be assayed to measure their capacity to inhibit proliferation of parasitemia in infected red blood cells. The proliferation is quantified by the addition of SYBR Green I (INVITROGEN)® dye which has a high affinity for double stranded DNA.

[1] = Plasmodium falciparum, 3D7, Erythrocyte
[2] = Plasmodium falciparum, Erythrocyte

Row | Compound | EC50 (3D7 P. falciparum strain; [1]) [nM] | EC50 (W2 strain; [2]) [nM] | EC50 (W2 strain; Erythrocyte) [nM] | EC50 (3D7 P. falciparum strain) [nM] | EC50 (W2 strain) [nM]
1 | CC(C)(N)C(=O)N1CCn2c(nc(-c3ccc(F)cc3)c2Nc2cc(Cl)cc(Cl)c2)C1 [Compound 644] | 310 | 490 | – | – | –
2 | CCCCCNCC(=O)N1CCn2c(nc(-c3ccc(F)cc3)c2Nc2ccc(C)cc2)C1 [Compound 308] | 60 | – | 68 | – | –
3 | Cc1ccc(Nc2c(-c3ccc(F)cc3)nc3n2CCN(C(=O)Cc2ccc(F)cc2)C3)cc1 [Compound 233] | 10 | – | 15 | – | –
4 | O=C(CO)N1CCn2c(nc(-c3ccc(F)cc3)c2Nc2ccc(F)cc2)C1 [Example 44, 1-(2-(4-fluorophenyl)-3-(4-fluorophenylamino)-5,6-dihydroimidazo[1,2-a]pyrazin-7(8H)-yl)-2-hydroxyethanone] | 720 | – | 477 | – | –
5 | NCC(=O)N1CCn2c(nc(-c3ccccc3)c2Nc2ccc3c(c2)OCO3)C1 [Example 1, 2-amino-1-(3-(benzo[d][1,3]dioxol-5-ylamino)-2-phenyl-5,6-dihydroimidazo[1,2-a]pyrazin-7(8H)-yl)ethanone] | 460 | – | 473 | – | –
6 | CC1(C)c2nc(-c3ccc(F)cc3)c(Cc3ccc(F)cc3)n2CCN1C(=O)CN [Compound 693] | 8 | 8 | – | – | –
7 | Cc1ccc(Nc2c(-c3cccc(F)c3)nc3n2CC(=O)NC3(C)C)cc1Cl [Compound 604] | 40 | 49 | – | – | –
8 | Cc1ccc(Nc2c(-c3ccc(F)cc3)nc3n2CCN(C(=O)CNc2ccc(C)cc2C)C3)cc1 [Compound 384] | 470 | – | 889 | – | –
9 | Cc1ccc(Nc2c(-c3ccc(F)cc3)nc3n2CCN(C(=O)C(O)c2ccc(Br)cc2)C3)cc1 (centres unmarked) [Compound 126] | 100 | – | 80 | – | –
10 | CC1(C)c2nc(-c3ccc(F)cc3)c(Sc3ccc(F)cc3)n2CCN1C(=O)CN [Compound 715] | 6 | 6 | – | – | –
11 | Cc1cc(Nc2c(-c3cccc(F)c3)nc3n2CC(=O)N(CCCO)C3(C)C)ccc1F [Compound 690] | 866 | 760 | – | – | –
12 | Cc1ccc(Nc2c(-c3ccc(F)cc3)nc3n2CCN(C(=O)[C@@H](N)CO)C3)cc1 [Compound 163] | 20 | – | 26 | – | –
13 | CC1(C)C(=O)NCc2nc(-c3ccc(F)cc3)c(Nc3ccc(Cl)c(F)c3)n21 [Compound 618] | 2130 | 2890 | – | – | –
14 | NCCC(=O)N1CCn2c(nc(-c3ccc(F)cc3)c2Nc2ccc(F)cc2)C1 [Compound 34] | 70 | – | 75 | – | –
15 | O=C(CN1CCC(F)(F)CC1)N1CCn2c(nc(-c3ccc(F)cc3)c2Nc2ccc(F)cc2)C1 [Compound 62] | 4740 | – | 4740 | – | –
16 | Cc1ccc(Nc2c(-c3ccc(F)cc3)nc3n2CCN(C(=O)C2CCCN2)C3)cc1 (centres unmarked) [Compound 91] | 120 | – | 154 | – | –
17 | Cc1ccc(Nc2c(-c3ccc(F)cc3)nc3n2CCN(C(=O)CC(N)C(F)(F)F)C3)cc1 (centres unmarked) [Compound 190] | 940 | – | 1070 | – | –
18 | Fc1ccc(-c2nc3n(c2Nc2ccc(Cl)cc2)CCNC3)cc1 [Example 262, N-(4-chlorophenyl)-2-(4-fluorophenyl)-5,6,7,8-tetrahydroimidazo[1,2-a]pyrazin-3-mine] | 240 | – | 267 | – | –
19 | COc1ccc(-c2nc3n(c2Nc2ccc(F)cc2)CCN(C(=O)CN)C3)cc1 [Compound 53] | 2270 | – | 1700 | – | –
20 | Cc1ccc(Nc2c(-c3ccc(F)cc3)nc3n2CCN(C(=O)CN2CCCC(F)(F)C2)C3)cc1 [Compound 74] | 70 | – | 67 | – | –
21 | Cc1ccc(Nc2c(-c3ccc(F)cc3)nc3n2CCN(C(=O)C2CCCNC2)C3)cc1 (centres unmarked) [Compound 93] | – | – | – | 1670 | 1510
22 | CC(C)(C)CC(C)(C)Nc1c(-c2ccccc2OCCO)nc2ccccn12 [Compound 746] | > 10000 | 6940 | – | – | –
23 | O=C(C1CNCCO1)N1CCn2c(nc(-c3ccc(F)cc3)c2Nc2ccc(Cl)c(F)c2)C1 (centres unmarked) [Compound 367] | 190 | – | 148 | – | –
24 | CCCC(=O)NCCCC[C@H](N)C(=O)N1CCn2c(nc(-c3ccc(F)cc3)c2Nc2ccc(C)cc2)C1 [Compound 158] | 7540 | – | 4760 | – | –
25 | CN(c1ccc(Cl)c(F)c1)c1c(-c2ccc(F)cc2)nc2n1CCN(C(=O)C(C)(C)N)C2 [Compound 294] | 110 | – | 113 | – | –

Row | Compound | EC50 (3D7 P. falciparum strain; [1]) [nM] | EC50 (W2 strain; [2]) [nM] | EC50 (W2 strain; Erythrocyte) [nM] | EC50 (3D7 P. falciparum strain) [nM] | EC50 (W2 strain) [nM]
26 | CC1(C)c2nc(-c3ccc(F)cc3)cn2CCN1C(=O)C(N)CC1CCCCC1 (centres unmarked) [Compound 703] | 8570 | 8290 | – | – | –
27 | Cc1ccc(Nc2c(-c3ccc(F)cc3)nc3n2CCN(C(=O)C2(N)CCC2)C3)cc1 [Compound 139] | 160 | – | 165 | – | –
28 | CCCC(=O)Nc1ccc(C[C@H](N)C(=O)N2CCn3c(nc(-c4ccc(F)cc4)c3Nc3ccc(C)cc3)C2)cc1 [Compound 197] | 4160 | – | 1040 | – | –
29 | CNC(C)(C)C(=O)N1CCn2c(nc(-c3ccc(F)cc3)c2Nc2ccc(Cl)c(F)c2)C1 [Compound 320] | 170 | – | 103 | – | –
30 | Fc1ccc(Nc2c(-c3ccc(F)cc3)nc3cnccn23)cc1 [Example 26, N,2-bis(4-fluorophenyl)imidazo[1,2-a]pyrazin-3-amine] | > 10000 | – | 5520 | – | –
31 | O=C(CN1CCOCC1)N1CCn2c(nc(-c3ccc(F)cc3)c2Nc2ccc(F)cc2)C1 [Compound 41] | 2650 | – | 1790 | – | –
32 | COc1ccc(C(O)C(=O)N2CCn3c(nc(-c4ccc(F)cc4)c3Nc3ccc(C)cc3)C2)cc1 (centres unmarked) [Compound 122] | 180 | – | 154 | – | –
33 | Cc1ccc(Nc2c(-c3ccc(F)cc3)nc3n2CCN(C(=O)[C@H]2CCC[C@H]2N)C3)cc1 [Compound 193] | 90 | – | 75 | – | –
34 | CC(C)(N)C(=O)N1CCn2c(nc(-c3ccc(F)cc3)c2Nc2ccc(OC(F)F)cc2)C1 [Compound 642] | 2010 | 2500 | – | – | –
35 | Cc1ccc(Nc2c(-c3ccc(F)cc3)nc3n2CCN(C(=O)C(C)(C)N)C3)cc1C#N [Compound 630] | 35 | 85 | – | – | –
36 | CC(=O)Nc1ccc(C[C@H](N)C(=O)N2CCn3c(nc(-c4ccc(F)cc4)c3Nc3ccc(C)cc3)C2)cc1 [Compound 160] | 4320 | – | 2390 | – | –
37 | CC(C)(N)C(=O)N1CCn2c(nc(-c3ccc(F)cc3)c2Nc2cccc(Cl)c2)C1 [Compound 639] | 82 | 93 | – | – | –
38 | Cc1ccc(Nc2c(-c3ccc(F)cc3)nc3n2CCN(Cc2ccc(-c4ccncc4)cc2)C3)cc1 [Compound 184] | 3650 | – | 859 | – | –
39 | CCCC(=O)OC(C(=O)N1CCn2c(nc(-c3ccc(F)cc3)c2Nc2ccc(C)cc2)C1)c1ccccc1 (centres unmarked) [Compound 269] | 10 | – | 6 | – | –
40 | CCCCC(=O)Nc1ccc(C[C@H](N)C(=O)N2CCn3c(nc(-c4cccc(F)c4)c3Nc3ccc(F)cc3)C2)cc1 [Compound 260] | 7640 | – | 5010 | – | –
41 | Cc1ccc(Nc2c(-c3ccc(F)cc3)nc3n2CCNC3)cc1 [Example 113, 2-(4-fluorophenyl)-N-p-tolyl-5,6,7,8-tetrahydroimidazo[1,2-a]pyrazin-3-amine] | 150 | – | 146 | – | –
42 | Cc1ccc(Nc2c(-c3ccc(F)cc3)nc3n2CCN(C(=O)[C@H](N)CCCCNC(=O)C(F)(F)F)C3)cc1 [Compound 102] | 650 | – | 426 | – | –
43 | NCC(=O)N1CCn2c(nc(-c3ccc(F)cc3)c2Nc2cccc(F)c2)C1 [Compound 36] | 50 | – | 34 | – | –
44 | CC(C)(C)CC(C)(C)Nc1c(C2CCCCC2)nc2ccccn12 [Compound 738] | 3240 | 1560 | – | – | –
45 | Cc1ccc(Nc2c(-c3ccc(F)cc3)nc3n2CCN(C(=O)[C@H](CCCCNC(=O)OC(C)(C)C)NC(=O)OCc2ccccc2)C3)cc1 [Compound 152] | 3870 | – | 873 | – | –
46 | Cc1ccc(Nc2c(-c3ccc(F)cc3)nc3n2CCN(C(=O)C(C)(C)N)C3)cc1F [Compound 631] | 49 | 62 | – | – | –
47 | CC1(C)c2nc(-c3ccc(F)cc3)c(Sc3ccc(Cl)cc3)n2CCN1C(=O)CN [Compound 716] | 2 | 1 | – | – | –
48 | CCC(=O)Nc1ccc(C[C@H](N)C(=O)N2CCn3c(nc(-c4ccc(F)cc4)c3Nc3ccc(C)cc3)C2)cc1 [Compound 187] | 6680 | – | 3550 | – | –
49 | NC(C(=O)N1CCn2c(nc(-c3ccc(F)cc3)c2Nc2ccc(Cl)c(F)c2)C1)c1ccc(Cl)cc1 (centres unmarked) [Compound 369] | 110 | – | 84 | – | –
